Source: patent US20230414826A1, “FIBRIN HYDROGELS” (Mayo Foundation for Medical Education and Research, priority 2020, published 2023)
≈ marks a conversion by molar mass, not a printed value.

Assays:
[1] = Solubility point in citrate buffer; assay type: physicochemical; settings: aqueous buffer; 1× citrate buffer (20 mM sodium citrate, 100 mM sodium chloride pH 7.4)
[2] = biological target: T1, fibrinogen and thrombin (clinical standard from the manufacturer) (Homo sapiens, UniProt P02671+P02675+P02679); assay: Fibrinogen clotting assay with coagulation analyzer (Clauss method), clinical fibrinogen standard; assay type: biochemical; settings: clinical standard samples diluted in 1× citrate buffer + TB (4.58 mM), pH 7.4, 37° C.
T1 sequence (P02671 20-629 limits assumed): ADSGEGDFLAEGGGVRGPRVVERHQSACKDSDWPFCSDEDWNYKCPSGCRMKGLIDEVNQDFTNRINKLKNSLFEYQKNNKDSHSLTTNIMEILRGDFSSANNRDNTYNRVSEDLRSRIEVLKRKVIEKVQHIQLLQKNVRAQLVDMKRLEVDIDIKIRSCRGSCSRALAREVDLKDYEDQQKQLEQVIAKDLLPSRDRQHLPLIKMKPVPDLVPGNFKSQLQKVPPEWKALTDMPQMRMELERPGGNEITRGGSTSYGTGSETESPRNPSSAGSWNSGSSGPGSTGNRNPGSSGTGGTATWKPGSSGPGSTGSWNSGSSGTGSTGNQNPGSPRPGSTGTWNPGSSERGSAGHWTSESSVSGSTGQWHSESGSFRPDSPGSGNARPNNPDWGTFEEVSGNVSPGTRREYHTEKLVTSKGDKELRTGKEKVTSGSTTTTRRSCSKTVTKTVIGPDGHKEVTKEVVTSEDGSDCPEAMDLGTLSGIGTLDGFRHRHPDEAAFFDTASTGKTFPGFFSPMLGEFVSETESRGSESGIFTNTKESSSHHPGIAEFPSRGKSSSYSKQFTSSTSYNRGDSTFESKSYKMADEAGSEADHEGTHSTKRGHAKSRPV
T1 sequence (P02675 31-491): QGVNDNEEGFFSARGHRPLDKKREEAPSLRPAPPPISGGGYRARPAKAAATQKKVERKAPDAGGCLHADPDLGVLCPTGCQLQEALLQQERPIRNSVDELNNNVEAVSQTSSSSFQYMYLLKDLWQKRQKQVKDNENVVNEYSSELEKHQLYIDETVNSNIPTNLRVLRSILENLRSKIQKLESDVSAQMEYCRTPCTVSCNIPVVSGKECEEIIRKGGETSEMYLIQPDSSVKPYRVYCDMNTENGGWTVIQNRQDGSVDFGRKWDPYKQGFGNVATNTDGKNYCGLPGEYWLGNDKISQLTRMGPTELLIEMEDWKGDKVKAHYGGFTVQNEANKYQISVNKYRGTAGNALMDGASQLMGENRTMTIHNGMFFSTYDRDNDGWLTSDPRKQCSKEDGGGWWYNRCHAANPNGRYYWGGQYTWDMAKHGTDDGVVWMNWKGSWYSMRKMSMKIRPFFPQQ
T1 sequence (P02679 27-433 limits assumed): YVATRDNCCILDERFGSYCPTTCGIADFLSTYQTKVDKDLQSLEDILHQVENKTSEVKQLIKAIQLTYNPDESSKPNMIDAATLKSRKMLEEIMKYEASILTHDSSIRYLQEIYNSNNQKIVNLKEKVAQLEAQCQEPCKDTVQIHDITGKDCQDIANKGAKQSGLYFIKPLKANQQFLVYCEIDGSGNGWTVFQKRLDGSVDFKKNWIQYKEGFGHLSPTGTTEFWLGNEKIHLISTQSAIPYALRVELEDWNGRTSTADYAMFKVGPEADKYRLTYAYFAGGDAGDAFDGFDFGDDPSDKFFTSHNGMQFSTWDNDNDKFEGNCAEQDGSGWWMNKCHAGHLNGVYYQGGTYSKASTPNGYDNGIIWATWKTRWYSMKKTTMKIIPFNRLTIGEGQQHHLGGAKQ
Description: The effect of various chemical compounds on clotting time was determined. […] The chemical additives were added to either clinical fibrinogen standards (Stago; Parsippany NJ) or a 1:20 dilution of the Evicel Biologically Active Component 2 (Ethicon), which is a fibrinogen solution (60 mg/mL) and served as the various samples. The same lot of BAC2 was used within each experiment to minimize lot-lot variability.
The Clauss method was used to measure fibrin clotting time. The clotting assay was performed using the Stago STart® Coagulation Analyzer (Stago; Parsippany, NJ) per manufacturer's protocol. The Stago STart uses a mechanical, viscosity-based detection of clotting, independent of sample color and turbidity. Per the protocol, samples were diluted 1:20 in Owren-Koller buffer (Stago) and allowed to equilibrate for 5 minutes at 37° C. Each sample was loaded in a cuvette with a magnetic bead.
In efforts to improve the visibility of fibrin gels during surgical implantation, it was observed that the inclusion of TB in the gelation mixture improved handling of the liquid phase of the gelation reaction. […] A coagulation analyzer is a specialized clinical instrument that is used to quantify fibrinogen concentrations in patient blood samples via the Clauss Method (Clauss, Acta Haematol., 17:237-46 (1957)). […]

## Cc1cc(-c2ccc(/N=N/c3c(S(=O)(=O)O)cc4cc(S(=O)(=O)O)cc(N)c4c3O)c(C)c2)ccc1/N=N/c1c(S(=O)(=O)O)cc2cc(S(=O)(=O)O)cc(N)c2c1O [TB, Trypan Blue]
[1]
  solubility: 4.58 mM (≈ 4000 µg/mL)
[2]
  gelation time (clotting time): 14.6 ± 1.5 s
